Experimental data reported in publication PMC6482079 (European journal of pharmaceutical sciences : official …, 2019).

Tests used:
[1] = test system: B/Wisconsin/1/2010 (Yamagata); test: Plaque reduction assay in ST6Gal I-overexpressing MDCK cells; type: cell-based, influenza B virus; conditions: for Drug sensitivity: sensitivity of the strain to the named drug
[2] = test system: B/Bris/60/2008 (Victoria); test: as above; type: cell-based, influenza B virus; conditions: for Drug sensitivity: sensitivity of the strain to the named drug

| SMILES | Drug sensitivity [1] | Drug sensitivity [2] | SI (selectivity index) ([1]; CC50/EC50) | EC50 ([1]; Influenza B virus, MDCK) [nM] | SI (selectivity index) ([2]; CC50/EC50) | EC50 ([2]; Influenza B virus, MDCK) [nM] |
| --- | --- | --- | --- | --- | --- | --- |
| CCC(CC)O[C@@H]1C=C(C(=O)O)C[C@H](N)[C@H]1NC(C)=O [Oseltamivir carboxylate] | Sensitive | Sensitive | – | – | – | – |
| Cc1cc(OCc2nnc(SC3CCCC3)n2-c2cccnc2)ccc1-c1ccc(S(C)(=O)=O)cc1 [NMS-873] | – | – | 78 | 35 ± 5 | 97 | 28 ± 8 |
| NC12CC3CC(CC(C3)C1)C2 [Amantadine, amantadine] | Resistant | Resistant | – | – | – | – |
